Test [1] deals with His tagged CRBN+DDB−DLS7+CXU4 (Homo sapiens (Human), UniProt Q96SW2). As to the kind of experiment: IC50 Measurements for Binding to CRBN/DDBI (HTRF). As to conditions: Cy5-labeled Thalidomide probe, one hour incubation.
The next test addresses IKZF2 (Homo sapiens (Human), UniProt Q96SW2+Q9UKS7). As to the kind of experiment: IKZF2 HiBit Assay (HEK293T Flp-in-HiBiT cells). It is filed as cell-based. The note with it: HEK293T Flp-in-HiBiT cells, 6 hrs; for DC50: read-out: IKZF2 HiBit degradation DC50; for Dmax: HEK-293T, read-out: IKZF2 HiBit degradation Dmax. In a few lines:
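HEK293T Flp-in cells carrying CRISPR-inserted N-terminal HiBiT tag at the endogenous IKZF2 locus were treated with an 11-point, 3-fold dilution from 1 mM (stock) for 6 hrs; final DMSO 0.1%. HiBiT luminescence was detected after lysis with LgBiT/substrate reagent. DMSO-normalized curves gave 50% degradation concentration and Dmax.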

For a further test, the target named is IKZF1 (Homo sapiens (Human), UniProt Q13422+Q96SW2). As to the kind of experiment: IKZF1 HiBit Assay (HEK293T Flp-in-HiBiT-IKZF1 stable cell line). The note with it: HEK293T Flp-in-HiBiT-IKZF1 cells, 6 hrs; for DC50: read-out: IKZF1 HiBit degradation DC50; for Dmax: HEK-293T, read-out: IKZF1 HiBit degradation Dmax. It is filed as cell-based. Put shortly: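 HEK293T Flp-in cells with CRISPR-inserted N-terminal HiBiT tag treated 6 h with 11-point threefold dilutions (0.1% DMSO). Nano-Glo HiBiT lytic luminescence normalised to DMSO gave the 50%-degradation concentration; Dmax taken as the luminescence range from highest to lowest concentration.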
IKZF1, sequence (Q13422 whole entry): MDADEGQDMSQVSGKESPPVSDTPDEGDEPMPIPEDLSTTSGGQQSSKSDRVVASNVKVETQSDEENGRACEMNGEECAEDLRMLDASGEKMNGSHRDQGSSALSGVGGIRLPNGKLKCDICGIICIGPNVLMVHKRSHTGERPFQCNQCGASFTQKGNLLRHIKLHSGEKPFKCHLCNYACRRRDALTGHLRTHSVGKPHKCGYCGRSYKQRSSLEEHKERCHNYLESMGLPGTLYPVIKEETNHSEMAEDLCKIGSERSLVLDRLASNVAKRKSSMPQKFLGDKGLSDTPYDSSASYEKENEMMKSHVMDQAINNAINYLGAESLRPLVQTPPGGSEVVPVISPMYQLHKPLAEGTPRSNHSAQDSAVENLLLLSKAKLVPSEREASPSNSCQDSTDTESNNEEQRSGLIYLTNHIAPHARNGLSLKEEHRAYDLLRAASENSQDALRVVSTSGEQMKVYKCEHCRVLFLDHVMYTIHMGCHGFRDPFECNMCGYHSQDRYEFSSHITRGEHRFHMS
IKZF1, sequence (Q96SW2 whole entry): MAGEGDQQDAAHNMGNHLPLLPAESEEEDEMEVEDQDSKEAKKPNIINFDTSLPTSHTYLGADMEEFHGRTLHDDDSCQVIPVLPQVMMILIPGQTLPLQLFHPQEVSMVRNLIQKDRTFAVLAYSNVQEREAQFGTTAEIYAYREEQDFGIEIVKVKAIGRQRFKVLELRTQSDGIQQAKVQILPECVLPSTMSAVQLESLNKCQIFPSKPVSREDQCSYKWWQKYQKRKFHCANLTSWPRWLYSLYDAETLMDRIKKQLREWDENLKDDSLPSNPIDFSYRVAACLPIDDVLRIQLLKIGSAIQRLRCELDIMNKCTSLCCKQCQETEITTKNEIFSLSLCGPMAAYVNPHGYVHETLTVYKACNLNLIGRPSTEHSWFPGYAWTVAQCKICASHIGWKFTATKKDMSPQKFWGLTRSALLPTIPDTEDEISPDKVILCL
IKZF1, sequence (Q16531 whole entry partner): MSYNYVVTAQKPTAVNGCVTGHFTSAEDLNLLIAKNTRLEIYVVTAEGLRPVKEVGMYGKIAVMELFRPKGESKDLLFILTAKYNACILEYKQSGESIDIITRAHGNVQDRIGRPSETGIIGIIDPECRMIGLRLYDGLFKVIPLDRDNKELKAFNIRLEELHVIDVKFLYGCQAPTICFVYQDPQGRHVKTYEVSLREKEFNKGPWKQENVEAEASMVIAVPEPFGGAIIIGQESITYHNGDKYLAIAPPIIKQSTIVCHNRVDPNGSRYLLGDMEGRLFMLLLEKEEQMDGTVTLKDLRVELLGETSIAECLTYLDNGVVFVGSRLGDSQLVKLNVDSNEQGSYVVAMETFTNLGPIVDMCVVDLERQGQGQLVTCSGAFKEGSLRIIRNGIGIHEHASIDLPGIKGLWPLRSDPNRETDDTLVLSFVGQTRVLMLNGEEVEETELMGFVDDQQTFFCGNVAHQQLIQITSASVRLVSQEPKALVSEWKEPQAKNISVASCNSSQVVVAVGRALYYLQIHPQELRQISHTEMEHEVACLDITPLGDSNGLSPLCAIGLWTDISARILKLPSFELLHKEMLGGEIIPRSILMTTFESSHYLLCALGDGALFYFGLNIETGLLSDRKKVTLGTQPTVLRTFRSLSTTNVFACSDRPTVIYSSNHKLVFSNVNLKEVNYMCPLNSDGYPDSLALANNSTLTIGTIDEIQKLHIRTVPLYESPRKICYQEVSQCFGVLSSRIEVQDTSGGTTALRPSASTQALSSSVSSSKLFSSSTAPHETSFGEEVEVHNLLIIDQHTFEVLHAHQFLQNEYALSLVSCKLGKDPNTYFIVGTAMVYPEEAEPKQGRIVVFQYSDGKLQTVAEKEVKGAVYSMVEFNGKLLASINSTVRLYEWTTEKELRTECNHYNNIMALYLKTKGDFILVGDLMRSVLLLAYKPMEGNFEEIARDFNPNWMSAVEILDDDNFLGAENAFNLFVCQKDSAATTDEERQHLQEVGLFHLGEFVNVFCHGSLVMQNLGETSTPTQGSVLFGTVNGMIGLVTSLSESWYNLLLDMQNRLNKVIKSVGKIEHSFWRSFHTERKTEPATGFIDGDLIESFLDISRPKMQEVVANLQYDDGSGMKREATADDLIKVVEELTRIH

IKZF2, sequence (Q9UKS7 whole entry): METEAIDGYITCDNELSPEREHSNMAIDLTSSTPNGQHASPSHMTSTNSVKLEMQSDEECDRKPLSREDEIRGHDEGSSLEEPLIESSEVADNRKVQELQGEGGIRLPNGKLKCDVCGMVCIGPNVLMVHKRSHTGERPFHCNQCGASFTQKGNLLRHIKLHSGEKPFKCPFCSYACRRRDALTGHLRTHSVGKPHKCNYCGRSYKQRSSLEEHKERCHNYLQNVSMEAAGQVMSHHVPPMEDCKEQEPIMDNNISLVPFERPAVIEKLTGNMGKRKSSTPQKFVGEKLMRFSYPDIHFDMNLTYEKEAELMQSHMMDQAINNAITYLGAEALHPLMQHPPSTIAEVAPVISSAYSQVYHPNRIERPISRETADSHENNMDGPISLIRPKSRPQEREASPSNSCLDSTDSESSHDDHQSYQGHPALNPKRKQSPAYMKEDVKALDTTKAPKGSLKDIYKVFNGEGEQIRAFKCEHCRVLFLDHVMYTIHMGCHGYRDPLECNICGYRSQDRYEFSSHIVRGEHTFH
IKZF2, sequence (Q96SW2 whole entry): as the sequence (Q96SW2 whole entry) above
IKZF2, sequence (Q16531 whole entry partner): as the sequence (Q16531 whole entry partner) above
His tagged CRBN+DDB−DLS7+CXU4, sequence (Q96SW2 whole entry): as the sequence (Q96SW2 whole entry) above
His tagged CRBN+DDB−DLS7+CXU4, sequence (Q16531 whole entry partner): as the sequence (Q16531 whole entry partner) above

What is called IC50 is the point on the concentration scale where inhibition reaches its midpoint. Broadly, the DC50 is the concentration giving 50% degradation. The Dmax is the largest share of the target that was removed. In test [1], `O=C1CCC(N2Cc3c(ccc4c3OCC43CCN(Cc4ccccc4)CC3F)C2=O)C(=O)N1` (stereo not shown) [Compound B23, 3-(1′-benzyl-3′-fluoro-6-oxo-6,8-dihydro-2H,7H-spiro[furo[2,3-e]isoindole-3,4′-piperidin]-7-yl)piperidine-2,6-dione] had a 50% inhibitory concentration (IC50) of 500 to 1000 nM. Also, the 50% degradation concentration (DC50) at IKZF2 and at IKZF1 was > 1000 nM each time. For the same molecule, the Dmax at IKZF2 and at IKZF1 was < 20% throughout.

The molecule `O=C1CC[C@H](N2Cc3c(ccc4c3OCC43CCN(Cc4ccc5c(c4)CC(=O)N5)CC3(F)F)C2=O)C(=O)N1` (stereo partly drawn) [Compound B28, (3S)-3-(3′,3′-difluoro-6-oxo-1′-((2-oxoindolin-5-yl)methyl)-6,8-dihydro-2H,7H-spiro[furo[2,3-e]isoindole-3,4′-piperidin]-7-yl)piperidine-2,6-dione] returned an IC50 in test [1] of 100 to 500 nM. Further, the figures for the DC50 at IKZF2 and at IKZF1 were 1 to 10 nM and > 1000 nM, respectively. Besides, the Dmax at IKZF2 is 60 to 80%; at IKZF1, < 20%.

As for `O=C1CC[C@H](N2Cc3c(ccc4c3OCC43CCN(Cc4cnn(S(=O)(=O)c5ccccc5Cl)c4)CC3(F)F)C2=O)C(=O)N1` (stereo partly drawn) [Compound B29, (3S)-3-(1′-((1-((2-chlorophenyl)sulfonyl)-1H-pyrazol-4-yl)methyl)-3′,3′-difluoro-6-oxo-6,8-dihydro-2H,7H-spiro[furo[2,3-e]isoindole-3,4′-piperidin]-7-yl)piperidine-2,6-dione], the IC50 in test [1] was < 100 nM. Moreover, on IKZF2, the DC50 was < 1 nM and the greatest degradation seen (Dmax) is > 80%. Besides, at IKZF1, the DC50 fell in the range of 1 to 10 nM and the greatest degradation seen (Dmax) was > 40%.

Take `O=C1CC[C@H](N2Cc3c(ccc4c3OCC43CCN(Cc4cnn(-c5ccc(Cl)cc5)c4)CC3(F)F)C2=O)C(=O)N1` (stereo partly drawn) [Compound B30, (3S)-3-(1′-((1-(4-chlorophenyl)-1H-pyrazol-4-yl)methyl)-3′,3′-difluoro-6-oxo-6,8-dihydro-2H,7H-spiro[furo[2,3-e]isoindole-3,4′-piperidin]-7-yl)piperidine-2,6-dione]: the IC50 in test [1] lay in the range of 1000 to 5000 nM. Moreover, at IKZF2, the DC50 was in the range of 1 to 10 nM and the greatest degradation seen (Dmax) was in the range of 60 to 80%. For the same molecule, on IKZF1, the DC50 was > 1000 nM and the maximal degradation (Dmax) was < 20%.

As for `O=C1CC[C@H](N2Cc3c(ccc4c3OCC43CCN(Cc4ccc5c(c4)C(=O)NC5)CC3(F)F)C2=O)C(=O)N1` (stereo partly drawn) [Compound B31, (3S)-3-(3′,3′-difluoro-6-oxo-1′-((3-oxoisoindolin-5-yl)methyl)-6,8-dihydro-2H,7H-spiro[furo[2,3-e]isoindole-3,4′-piperidin]-7-yl)piperidine-2,6-dione], the 50% inhibitory concentration (IC50) in test [1] is 100 to 500 nM. Besides, the DC50 at IKZF2 is 1 to 10 nM; on IKZF1, > 1000 nM. Besides, the values for the maximal degradation (Dmax) on IKZF2 and on IKZF1 were 60 to 80% and < 20%, respectively.

In the case of `Cn1cc2ccc(CN3CCC4(COc5c4ccc4c5CN([C@H]5CCC(=O)NC5=O)C4=O)C(F)(F)C3)cc2n1` (stereo partly drawn) [Compound B35, (3S)-3-(3′,3′-difluoro-1′-((2-methyl-2H-indazol-6-yl)methyl)-6-oxo-6,8-dihydro-2H,7H-spiro[furo[2,3-e]isoindole-3,4′-piperidin]-7-yl)piperidine-2,6-dione], the IC50 in test [1] was < 100 nM. At IKZF2, the DC50 was 1 to 10 nM and the maximal degradation (Dmax) lay within 60 to 80%. Further, on IKZF1, the DC50 is > 1000 nM and the Dmax is < 20%.

`Cn1cc2cccc(CN3CCC4(COc5c4ccc4c5CN([C@H]5CCC(=O)NC5=O)C4=O)C(F)(F)C3)c2n1` (stereo partly drawn) [Compound B36, (3S)-3-(3′,3′-difluoro-1′-((2-methyl-2H-indazol-7-yl)methyl)-6-oxo-6,8-dihydro-2H,7H-spiro[furo[2,3-e]isoindole-3,4′-piperidin]-7-yl)piperidine-2,6-dione] returned a half-inhibitory concentration (IC50) in test [1] of 100 to 500 nM. The DC50 on IKZF2 is 1 to 10 nM; at IKZF1 it was < 1 nM. In addition, the greatest degradation seen (Dmax) on IKZF2 lay within 60 to 80%; at IKZF1, 20 to 40%.

Consider `Cn1cc2cc(CN3CCC4(COc5c4ccc4c5CN([C@H]5CCC(=O)NC5=O)C4=O)C(F)(F)C3)ccc2n1` (stereo partly drawn) [Compound B37, (3S)-3-(3′,3′-difluoro-1′-((2-methyl-2H-indazol-5-yl)methyl)-6-oxo-6,8-dihydro-2H,7H-spiro[furo[2,3-e]isoindole-3,4′-piperidin]-7-yl)piperidine-2,6-dione], for which the IC50 in test [1] is < 100 nM. Also, at IKZF2, the DC50 lay within 1 to 10 nM and the maximal degradation (Dmax) was 60 to 80%. On IKZF1, the half-maximal degradation concentration (DC50) was > 1000 nM and the greatest degradation seen (Dmax) was < 20%.

For the molecule `Cn1ncc2cc(CN3CCC4(COc5c4ccc4c5CN([C@H]5CCC(=O)NC5=O)C4=O)C(F)(F)C3)ccc21` (stereo partly drawn) [Compound B38, (3S)-3-(3′,3′-difluoro-1′-((1-methyl-1H-indazol-5-yl)methyl)-6-oxo-6,8-dihydro-2H,7H-spiro[furo[2,3-e]isoindole-3,4′-piperidin]-7-yl) piperidine-2,6-dione], the IC50 in test [1] is 100 to 500 nM. Further, at IKZF2, the 50% degradation concentration (DC50) lay in the range of 1 to 10 nM and the greatest degradation seen (Dmax) is 60 to 80%. Moreover, on IKZF1, the DC50 was > 1000 nM and the Dmax was < 20%.

Turning to `Cn1cc(-c2cccc(CN3CCC4(COc5c4ccc4c5CN([C@H]5CCC(=O)NC5=O)C4=O)C(F)(F)C3)c2)cn1` (stereo partly drawn) [Compound B39, (3S)-3-(3′,3′-difluoro-1′-(3-(1-methyl-1H-pyrazol-4-yl)benzyl)-6-oxo-6,8-dihydro-2H,7H-spiro[furo[2,3-e]isoindole-3,4′-piperidin]-7-yl) piperidine-2,6-dione], the 50% inhibitory concentration (IC50) in test [1] lay in the range of 100 to 500 nM. In addition, on IKZF2, the DC50 is < 1 nM and the greatest degradation seen (Dmax) lay in the range of 60 to 80%. At IKZF1, the 50% degradation concentration (DC50) is > 1000 nM and the Dmax was < 20%.

In test [1], `O=C1CC[C@H](N2Cc3c(ccc4c3OCC43CCN(Cc4ccc5[nH]ncc5c4)CC3(F)F)C2=O)C(=O)N1` (stereo partly drawn) [Compound B40, (3S)-3-(1′-((1H-indazol-5-yl)methyl)-3′,3′-difluoro-6-oxo-6,8-dihydro-2H,7H-spiro[furo[2,3-e]isoindole-3,4′-piperidin]7-yl) piperidine-2,6-dione] gave an IC50 of 100 to 500 nM. Also, on IKZF2, the DC50 lay within 1 to 10 nM and the greatest degradation seen (Dmax) was 60 to 80%. At IKZF1, the DC50 was > 1000 nM and the maximal degradation (Dmax) was < 20%.

`O=C1CC[C@H](N2Cc3c(ccc4c3OCC43CCN(Cc4cccc5[nH]ncc45)CC3(F)F)C2=O)C(=O)N1` (stereo partly drawn) [Compound B41, (3S)-3-(1′-((1H-indazol-4-yl)methyl)-3′,3′-difluoro-6-oxo-6,8-dihydro-2H,7H-spiro[furo[2,3-e]isoindole-3,4′-piperidin]-7-yl)piperidine-2,6-dione] came in with a half-maximal inhibitory concentration (IC50) in test [1] of 100 to 500 nM. Moreover, on IKZF2, the DC50 lay in the range of 1 to 10 nM and the Dmax was in the range of 60 to 80%. On IKZF1, the 50% degradation concentration (DC50) fell in the range of 10 to 100 nM and the greatest degradation seen (Dmax) was in the range of 20 to 40%.

In the case of `Cn1cc2c(CN3CCC4(COc5c4ccc4c5CN([C@H]5CCC(=O)NC5=O)C4=O)C(F)(F)C3)cccc2n1` (stereo partly drawn) [Compound B42, (3S)-3-(3′,3′-difluoro-1′-((2-methyl-2H-indazol-4-yl)methyl)-6-oxo-6,8-dihydro-2H,7H-spiro[furo[2,3-e]isoindole-3,4′-piperidin]-7-yl)piperidine-2,6-dione], in test [1], the half-maximal inhibitory concentration (IC50) fell in the range of 100 to 500 nM. Further, at IKZF2, the DC50 was in the range of 1 to 10 nM and the greatest degradation seen (Dmax) was 60 to 80%. For the same molecule, on IKZF1, the 50% degradation concentration (DC50) is > 1000 nM and the greatest degradation seen (Dmax) is < 20%.

On to `Cn1ncc2c(CN3CCC4(COc5c4ccc4c5CN([C@H]5CCC(=O)NC5=O)C4=O)C(F)(F)C3)cccc21` (stereo partly drawn) [Compound B43, (3S)-3-(3′,3′-difluoro-1′-((1-methyl-1H-indazol-4-yl)methyl)-6-oxo-6,8-dihydro-2H,7H-spiro[furo[2,3-e]isoindole-3,4′-piperidin]-7-yl)piperidine-2,6-dione], for which the half-maximal inhibitory concentration (IC50) in test [1] was in the range of 1000 to 5000 nM. Also, at IKZF2, the 50% degradation concentration (DC50) fell in the range of 1 to 10 nM and the greatest degradation seen (Dmax) was 60 to 80%. Further, at IKZF1, the 50% degradation concentration (DC50) was > 1000 nM and the maximal degradation (Dmax) was < 20%.

Turning to `O=C1CC[C@H](N2Cc3c(ccc4c3OCC43CCN(Cc4cccc5cn[nH]c45)CC3(F)F)C2=O)C(=O)N1` (stereo partly shown) [Compound B44], in test [1], the IC50 is < 100 nM. At IKZF2, the DC50 was in the range of 1 to 10 nM and the Dmax was > 80%. At IKZF1, the 50% degradation concentration (DC50) was 100 to 1000 nM and the Dmax fell in the range of 20 to 40%.

Take `Cn1ncc2cccc(CN3CCC4(COc5c4ccc4c5CN([C@H]5CCC(=O)NC5=O)C4=O)C(F)(F)C3)c21` (stereo partly drawn) [Compound B45, (3S)-3-(3′,3′-difluoro-1′-((1-methyl-1H-indazol-7-yl)methyl)-6-oxo-6,8-dihydro-2H,7H-spiro[furo[2,3-e]isoindole-3,4′-piperidin]-7-yl)piperidine-2,6-dione]: in test [1], the half-inhibitory concentration (IC50) was in the range of 100 to 500 nM. On IKZF2, the DC50 fell in the range of 1 to 10 nM and the Dmax is > 80%. Further, at IKZF1, the DC50 was in the range of 10 to 100 nM and the greatest degradation seen (Dmax) is 20 to 40%.

`[2H]C([2H])(c1cccc(-c2cnn(C([2H])([2H])[2H])c2)c1)N1CCC2(COc3c2ccc2c3CN([C@H]3CCC(=O)NC3=O)C2=O)C(F)(F)C1` (stereo partly drawn) [Compound B48, (3S)-3-(3′,3′-difluoro-1′-((3-(1-(methyl-d3)-1H-pyrazol-4-yl)phenyl)methyl-d2)-6-oxo-6,8-dihydro-2H,7H-spiro[furo[2,3-e]isoindole-3,4′-piperidin]-7-yl)piperidine-2,6-dione] gave an IC50 in test [1] of 100 to 500 nM. In addition, the DC50 on IKZF2 was < 1 nM; at IKZF1, > 1000 nM. Further, the figures for the greatest degradation seen (Dmax) on IKZF2 and at IKZF1 were 60 to 80% and < 20%, respectively.

Source of the values: US20250215012A1, “IKZF2 DEGRADERS AND USES THEREOF” (REGENTS OF THE UNIVERSITY OF MICHIGAN, priority 2022, published 2025).
